From patent US12673120B2, “Fluorescently-traceable amino acid derivative and preparation methods and use thereof” (priority 2020, dated 2026) come the findings set out here.

Series [1] has as its system S180 (mouse ascites tumor cells). The experiment in a line: In vitro anti-tumor cell proliferation activity (MTT method), S180. It counts as cell-based. Particulars: read-out: IC50 values of in vitro anti-cell proliferation activity.
Description: (§1) Tested cell lines S180 (mouse ascites tumor cells), LLC (mouse lung cancer cells), A549 (human non-small cell lung cancer cells), HCT116 (human colon cancer cells), U2Os (human osteosarcoma cells), and MCF-7 (human breast cancer cells) each were purchased from Nanjing KeyGen Biotech.
(§2) When preparing a test sample, the test compound was prepared into a sample solution with a concentration of 500 μM (with a final concentration 100 μM) by a PBS buffer containing 0.5% DMSO, which was used for preliminary screening of an anti-cell proliferation experiment in vitro.
(§3) Positive control group: doxorubicin, prepared to a required concentration with PBS buffer containing 0.5% DMSO; negative control group: a PBS buffer containing 0.5% DMSO; blank group: a PBS buffer containing 0.01% DMSO.
In series [2] the test system is LLC (mouse lung cancer cells). The experiment in a line: In vitro anti-tumor cell proliferation activity (MTT method), LLC. In kind it is cell-based. Particulars: 48 h, read-out: IC50 values of in vitro anti-cell proliferation activity.
Description: as §1, §2, §3
Series [3] has as its system A549 (human non-small cell lung cancer cells). The series can be described thus: In vitro anti-tumor cell proliferation activity (MTT method), A549. In kind it is cell-based. Particulars: read-out: IC50 values of in vitro anti-cell proliferation activity.
Description: as §1, §2, §3
Series [4] deals with HCT116 (human colon cancer cells). The experiment in a line: In vitro anti-tumor cell proliferation activity (MTT method), HCT116. It counts as cell-based. Conditions: read-out: IC50 values of in vitro anti-cell proliferation activity. Background: Tetrazolium dyes change colour on reduction, which living cells bring about.
Description: as §1, §2, §3
In series [5] the test system is U2Os (human osteosarcoma cells). The experiment in a line: In vitro anti-tumor cell proliferation activity (MTT method), U2Os. In kind it is cell-based. Conditions: 48 h, read-out: IC50 values of in vitro anti-cell proliferation activity.
Description: as §1, §2, §3
The subject of series [6] is MCF-7 (human breast cancer cells). The experiment in a line: In vitro anti-tumor cell proliferation activity (MTT method), MCF-7. In kind it is cell-based. Conditions: read-out: IC50 values of in vitro anti-cell proliferation activity.
Description: as §1, §2, §3
A further series deals with mouse S180 sarcoma model. The series can be described thus: Inhibition of tumor growth in vivo (mouse S180 sarcoma model). On the set-up: species or system male ICR mice. Conditions: for Average tumor weight: Mean ± SD, n 10. The protocol:
The mice used in the experiment were male ICR mice of SPF grade, weighing 20 g±2 g, purchased from Beijing Vital River Laboratory Animal Technology Co., Ltd., and raised in an animal barrier of the Experimental Animal Department of Capital Medical University.
The specific method included: drugs were administered to tumor-forming mice by group for 7 consecutive days, a length of the tumor was measured every other day to calculate a tumor volume. 24 h after the last administration, the mice were weighed, anesthetized with diethyl ether, and eyeballs were removed to collect blood; the obtained whole blood was centrifuged at 1,000 rpm for 10 min, and a serum was absorbed for later use. The mice were sacrificed by neck dislocation, and the tumor mass and various organs were stripped and weighed (it was ensured that the operation was done as soon as possible and the stripping was complete and clean). The tumor inhibition rate was calculated by formula b, the results were shown in Table 2 and FIG. 2; and by calculating a viscera-weight ratio of each organ, and it was analyzed whether the test compound had obvious physiological effects on the mouse organs.

The nature of the next series: Water solubility. Particulars: decides the injection route. In kind it is physicochemical.
The nature of series [7]: Nanomorphology characterization and stability (TEM, SEM, hydration particle size, Zeta potential). It counts as physicochemical. An excerpt: The nanomorphology of compounds ZD-B and ZD-E-1 were studied by TEM and SEM, and hydration particle size and Zeta potential of the two compounds in a solution were studied by a nanometer particle size analyzer. The results were shown in FIG. 1A-H. In FIG. 1A-H, FIG. 1A was a TEM image of the compound ZD-B; FIG. 1B was a TEM image of the compound ZD-E-1; FIG. 1C was a SEM image of the compound ZD-B; FIG. 1D was a SEM image of the compound ZD-E-1; FIG. 1E was a hydration particle size change curve of the compound ZD-B in solutions at different pH values within 72 h (0.5 h, 24 h, 48 h, and 72 h); FIG. 1F was a hydration particle size change curve of the compound ZD-E-1 in solutions at different pH solutions within 72 h; FIG. 1G was a Zeta potential change curve of the compound ZD-B in solutions at different pH values within 72 h; and FIG. 1H was a Zeta potential change curve of the compound ZD-E-1 in solutions at different pH values within 72 h.

[8] abbreviates: Table 2, 2 μmol/kg, ip, 7 consecutive days.
The mark [9] stands for this setting: Table 2, 10 μmol/kg, ip, 7 consecutive days.

Structures can show the parent of a compound that is named as a salt. Where two headings read alike, the source gives them in different places.

`COc1cccc2c1C(=O)c1c(O)c3c(c(O)c1C2=O)C[C@@](O)(C(=O)CO)C[C@@H]3O[C@H]1C[C@H](N)[C@H](O)[C@H](C)O1` [DOX, doxorubicin, reference compound]: the IC50 in series [1] (Mus musculus, S-180, S180, 48 h, Mean ± SD) was 0.49 ± 0.092 µM; in [2] (Mus musculus, LLC, Mean ± SD), 0.19 ± 0.095 µM; in series [3] (Homo sapiens, A549, 48 h, Mean ± SD), 0.229 ± 0.052 µM; in series [4] (Homo sapiens, HCT-116, HCT116, 48 h, Mean ± SD), 0.375 ± 0.108 µM; in series [5] (Homo sapiens, U2Os, Mean ± SD), 1.2 ± 0.034 µM; in series [6] (Homo sapiens, MCF7, MCF-7, 48 h, Mean ± SD), 1.03 ± 0.188 µM. Also, the Tumor Inhibition Rate in the series on mouse S180 sarcoma model (setting [8]) was found to be 51.80%. Further, the Average tumor weight with mouse S180 sarcoma model (setting [8]) amounted to 0.861 ± 0.462 g.

On to `CN(C)c1ccc2cc(C(=O)NC(CCCNC(=N)CCl)C(=O)NCc3ccccc3)ccc2c1` (centres unmarked) [YW3-56, N-(1-(benzylamino)-5-(2-chlorooxalimide)-1-oxopentan-2-yl)-6-(dimethylamino)-2-naphthylamide, reference compound], for which the Tumor Inhibition Rate was found to be 44.39% in the series with mouse S180 sarcoma model (setting [9]) and 44.38% with mouse S180 sarcoma model (Table 3, 10 μmol/kg, iv). The Average tumor weight was 0.994 ± 0.310 g with mouse S180 sarcoma model (setting [9]) and 0.954 ± 0.298 g in the series on mouse S180 sarcoma model (Table 3, 10 μmol/kg, iv).

For the compound `N=C(NCCC[C@H](Nc1ccc([N+](=O)[O-])c2nonc12)C(=O)OCc1ccccc1)N[N+](=O)[O-]` [ZD-A, NBD-Arg(NO2)-OBzl], the IC50 was more than 100 µM in series [1] (Mus musculus, S-180, 48 h); more than 100 µM in series [2] (Mus musculus); more than 100 µM in [3] (Homo sapiens, A549, 48 h); more than 100 µM in series [4] (Homo sapiens, HCT-116, 48 h); more than 100 µM in series [5] (Homo sapiens, U2OS); more than 100 µM in series [6] (Homo sapiens, MCF7, 48 h). In the series on mouse S180 sarcoma model (10 μmol/kg, ip), the “Average tumor weight compared with Vehicle group (one-way analysis of variance)” value was “different from that of Vehicle group”. Also, the Tumor Inhibition Rate is recorded as 36.19% with mouse S180 sarcoma model (setting [9]); 23.36% with mouse S180 sarcoma model (Table 3, 2 μmol/kg, ip); 28.20% in the series with mouse S180 sarcoma model (Table 3, 5 μmol/kg, ip); 29.78% in the series with mouse S180 sarcoma model (Table 3, 10 μmol/kg, ip). In addition, the Average tumor weight in the series with mouse S180 sarcoma model (setting [9]) was found to be 1.140 ± 0.437 g; in the series with mouse S180 sarcoma model (Table 3, 2 μmol/kg, ip) it was 1.315 ± 0.338 g; with mouse S180 sarcoma model (Table 3, 5 μmol/kg, ip), 1.232 ± 0.102 g; in the series with mouse S180 sarcoma model (Table 3, 10 μmol/kg, ip) it was 1.204 ± 0.438 g. The Water solubility result in “Water solubility” was “poor water solubility”.

Consider `CC(C)C[C@H](Nc1ccc([N+](=O)[O-])c2nonc12)C(=O)N[C@H](C(=O)OCc1ccccc1)C(C)C` [ZD-B, NBD-LV-OBzl], for which the IC50 in [1] (S180, 48 h, Mean ± SD) was 74.4 ± 10.1 µM; in series [2] (LLC, Mean ± SD), 96.5 ± 6.85 µM; in series [3] (A549, 48 h, Mean ± SD), more than 100 µM; in series [4] (HCT116, 48 h, Mean ± SD), more than 100 µM; in series [5] (U2Os, Mean ± SD) it was 86.4 ± 5.3 µM. The “Anti-tumor growth activity (in words)” value in the series with mouse S180 sarcoma model (10 μmol/kg, ip) was “most prominent activities”. Besides, the “Average tumor weight compared with Vehicle group (one-way analysis of variance)” value in the series on mouse S180 sarcoma model (10 μmol/kg, ip) was “significantly different from that of Vehicle group”. Besides, the Tumor Inhibition Rate was determined as 44.60% in the series with mouse S180 sarcoma model (setting [9]); 17.00% with mouse S180 sarcoma model (Table 3, 2 μmol/kg, ip); 35.64% with mouse S180 sarcoma model (Table 3, 5 μmol/kg, ip); 41.23% with mouse S180 sarcoma model (Table 3, 10 μmol/kg, ip). The Average tumor weight in the series on mouse S180 sarcoma model (setting [9]) is on record as 0.990 ± 0.180 g; in the series on mouse S180 sarcoma model (Table 3, 2 μmol/kg, ip) it was 1.424 ± 0.434 g; in the series with mouse S180 sarcoma model (Table 3, 5 μmol/kg, ip), 1.104 ± 0.218 g; in the series on mouse S180 sarcoma model (Table 3, 10 μmol/kg, ip), 1.008 ± 0.472 g. For the same compound, the “Nanomorphology (shape)” value in series [7] (TEM and SEM) is reported as “shape of a strip”. For the same compound, the “Hydration particle size change” value in [7] (pH=2.0, measured continuously for 72 h) was “great change in particle size”; in series [7] (pH=5.5, measured continuously for 72 h) it was “great change in particle size”. In addition, in [7] (pH=7.0 versus other pH values, 72 h), the Hydration particle size entry is recorded as “smallest particle size at pH=7.0”. Also, in [7] (solutions at different pH values, measured continuously for 72 h), the Zeta potential change entry was “neither ZD-B nor ZD-E-1 had an obvious change”. Moreover, in “Water solubility”, the Water solubility result is given as “poor water solubility”.

On to `CS(=O)(=O)NCCNc1ccc([N+](=O)[O-])c2nonc12` [ZD-C, NBD-N-(2-aminoethyl)methanesulfonamide], for which the IC50 in [1] (S180, 48 h, Mean ± SD) is more than 100 µM; in [2] (LLC, Mean ± SD) it was more than 100 µM; in series [3] (A549, 48 h, Mean ± SD) it was more than 100 µM; in [4] (HCT116, 48 h, Mean ± SD), more than 100 µM; in [5] (U2Os, Mean ± SD) it was more than 100 µM; in series [6] (MCF-7, 48 h, Mean ± SD), more than 100 µM. The “Average tumor weight compared with Vehicle group (one-way analysis of variance)” value with mouse S180 sarcoma model (10 μmol/kg, ip) was “different from that of Vehicle group”. The compound further showed a Tumor Inhibition Rate in the series with mouse S180 sarcoma model (setting [9]) of 29.46%. Also, the Average tumor weight with mouse S180 sarcoma model (setting [9]) was 1.260 ± 0.466 g.

As to `O=C1NCCC[C@@H]1Nc1ccc([N+](=O)[O-])c2nonc12` [ZD-D, NBD-Orn(cycto)], the IC50 was more than 100 µM in series [1] (S180, 48 h, Mean ± SD); more than 100 µM in [2] (LLC, Mean ± SD); more than 100 µM in series [3] (A549, 48 h, Mean ± SD); more than 100 µM in series [4] (HCT116, 48 h, Mean ± SD); more than 100 µM in [5] (U2Os, Mean ± SD); more than 100 µM in series [6] (MCF-7, 48 h, Mean ± SD). The Tumor Inhibition Rate in the series with mouse S180 sarcoma model (setting [9]) is reported as 25.77%. Also, the Average tumor weight in the series with mouse S180 sarcoma model (setting [9]) came out at 1.326 ± 0.318 g.

Take `NCCC[C@H](Nc1ccc([N+](=O)[O-])c2nonc12)C(=O)NCc1ccccc1` [ZD-E, (S)-5-amino-N-benzyl-2-((7-nitro-2,1,3-benzoxadiazol-4-yl)amino)pentaneamide]: the IC50 in series [1] (Mus musculus, S-180, 48 h) is 66 ± 2.61 µM; in [2] (Mus musculus) it was more than 100 µM; in series [3] (Homo sapiens, A549, 48 h), more than 100 µM; in [4] (Homo sapiens, HCT-116, 48 h) it was 49.7 ± 4.17 µM; in series [5] (Homo sapiens, U2OS), 60.5 ± 0.969 µM; in series [6] (Homo sapiens, MCF7, 48 h), 85.2 ± 6.1 µM. Also, in the series on mouse S180 sarcoma model (setting [9]), the Tumor Inhibition Rate came to 25.82%. Also, in the series with mouse S180 sarcoma model (setting [9]), the Average tumor weight worked out at 1.326 ± 0.685 g.

With `NCCCC[C@H](Nc1ccc([N+](=O)[O-])c2nonc12)C(=O)NCc1ccccc1` [ZD-F, NBD-Lys(HCl)-NBzl], the IC50 in series [1] (S180, 48 h, Mean ± SD) was more than 100 µM; in [2] (LLC, Mean ± SD), more than 100 µM; in [3] (A549, 48 h, Mean ± SD), more than 100 µM; in series [4] (HCT116, 48 h, Mean ± SD), more than 100 µM; in [5] (U2Os, Mean ± SD), more than 100 µM; in series [6] (MCF-7, 48 h, Mean ± SD), more than 100 µM.
